Measured values as given in patent publication US6617351B1, “Amide, carbamate, and urea derivatives” (Eli Lilly and Company, priority 1998, dated 2003).

Biological target: T1, human GluR4B receptor (Homo sapiens, UniProt P48058)
T1 construct: expressed in transfected cells; host or cells: HEK293
Experiment: potentiation of agonist-induced excitability of human GluR4B receptor expressed in HEK 293 cells
Format: cell-based
Excerpt: The ability of compounds of formula I to potentiate glutamate receptor-mediated response may be determined using fluorescent calcium indicator dyes (Molecular Probes, Eugene, Oreg., Fluo-3) and by measuring glutamate-evoked efflux of calcium into GluR4 transfected HEK293 cells, as described in more detail below.
In one test, 96 well plates containing confluent monolayers of HEK cells stably expressing human GluR4B (obtained as described in European Patent Application Publication Number EP-A1-583917) are prepared. […]
Each test is then performed as follows. […] A second fluorescent reading is taken after 5 minutes incubation. 15 μl of 400 μM glutamate solution is then added to each well (final glutamate concentration 100 μM), and a third reading is taken. The activities of test compounds and cyclothiazide solutions are determined by subtracting the second from the third reading (fluorescence due to addition of glutamate in the presence or absence of test compound or cyclothiazide) and are expressed relative to enhance fluorescence produced by 100 μM cyclothiazide.
In another test, HEK293 cells stably expressing human GluR4 (obtained as described in European Patent Application Publication No. EP-A1-0583917) are used in the electro-physiological characterization of AMPA receptor potentiators. […] Responses to 1 mM glutamate are then determined in the presence of test compound. […]

T1 sequence (P48058 21-902): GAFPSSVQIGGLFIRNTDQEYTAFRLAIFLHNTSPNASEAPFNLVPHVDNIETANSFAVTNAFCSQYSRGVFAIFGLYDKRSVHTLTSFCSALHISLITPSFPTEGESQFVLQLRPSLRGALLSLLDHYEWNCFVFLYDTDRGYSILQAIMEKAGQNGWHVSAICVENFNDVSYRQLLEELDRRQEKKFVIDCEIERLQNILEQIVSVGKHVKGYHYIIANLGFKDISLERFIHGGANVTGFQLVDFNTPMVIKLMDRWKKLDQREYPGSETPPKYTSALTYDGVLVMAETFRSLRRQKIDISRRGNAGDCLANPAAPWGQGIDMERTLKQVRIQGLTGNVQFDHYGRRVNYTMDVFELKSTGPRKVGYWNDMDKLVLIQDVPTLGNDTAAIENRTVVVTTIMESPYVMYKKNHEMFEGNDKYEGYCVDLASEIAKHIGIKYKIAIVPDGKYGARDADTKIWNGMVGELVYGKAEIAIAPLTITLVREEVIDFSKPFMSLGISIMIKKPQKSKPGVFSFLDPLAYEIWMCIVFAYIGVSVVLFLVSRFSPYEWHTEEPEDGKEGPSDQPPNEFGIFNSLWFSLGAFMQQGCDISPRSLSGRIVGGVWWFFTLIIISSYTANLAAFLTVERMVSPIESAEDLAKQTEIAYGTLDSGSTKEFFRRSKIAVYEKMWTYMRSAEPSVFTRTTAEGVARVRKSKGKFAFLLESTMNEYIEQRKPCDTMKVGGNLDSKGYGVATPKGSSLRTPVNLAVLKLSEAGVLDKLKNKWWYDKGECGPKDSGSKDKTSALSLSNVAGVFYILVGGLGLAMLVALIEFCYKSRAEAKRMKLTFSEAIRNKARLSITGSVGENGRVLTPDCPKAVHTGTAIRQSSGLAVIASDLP

NS(=O)(=O)c1cc2c(cc1Cl)NC(C1CC3C=CC1C3)NS2(=O)=O (stereo not shown) [cyclothiazide]
potentiation of agonist-induced excitability: potentiate agonist-induced excitability
